Experimental data as given in patent publication US10980805B2, “Aza-pyridone compounds and uses thereof” (Janssen BioPharma, Inc., priority 2013, dated 2021).

Experiments:
[1] = test system: Influenza strain A549_A/WSN/33 (H1N1); assay: Influenza antiviral assay (neuraminidase fluorescence readout); format: cell-based, Influenza virus; conditions: Influenza A virus, read-out: % Inhibition (EC50 class, Table 2)
[2] = biological target: Full length EN PA (influenza PA endonuclease) (Influenza A virus, UniProt P15659); assay: EN PA FRET inhibition assay; format: biochemical; conditions: FRET probe, mean of a minimum of two independent experiments, read-out: Potency (IC50 class, Table 3)

SMILES	EC50 [1] [µM]	IC50 [2] [nM]
CCN1CC(C(c2ccccc2)c2cccc(Cl)c2)n2ncc(=O)c(O)c2C1=O (stereo not shown) [Compound 12]	< 20	< 250
CC#Cc1cn(C(c2ccccc2)C2CN(C)C(=O)c3c(O)c(=O)cnn32)cn1 (stereo not shown) [Compound 111]	≥ 100	250 to 1000
CC(C)N1CC(C2c3ccccc3CCc3ccccc32)n2ncc(=O)c(O)c2C1=O (stereo not shown) [Compound 17]	< 20	< 250
CN1CC(C2c3cc(Cl)ccc3CCc3ccc(Cl)cc32)n2ncc(=O)c(O)c2C1=O (stereo not shown) [Compound 52]	< 20	< 250
C#Cc1ccn(C(c2ccccc2)C2CN(C)C(=O)c3c(O)c(=O)cnn32)n1 (stereo not shown) [Compound 109]	< 20	< 250
C#Cc1ccn([C@@H](c2ccccc2)[C@@H]2CN(C)C(=O)c3c(O)c(=O)cnn32)n1 [Compound 109-D]	< 20	250 to 1000
CN1C[C@H]([C@@H](c2ccccc2)n2ccnc2)n2ncc(=O)c(O)c2C1=O [Compound 108-A]	20 to 100	< 250
CCN1C[C@H]([C@H](c2ccccc2)c2cccc(Cl)c2)n2ncc(=O)c(O)c2C1=O [Compound 12-B]	< 20	< 250
O=C1NCC(C(c2ccccc2)c2ccccc2)n2ncc(=O)c(O)c21 (stereo not shown) [Compound 8]	< 20	< 250
CN1C[C@H](C2c3ccc(F)cc3CCc3cc(F)ccc32)n2ncc(=O)c(O)c2C1=O [Compound 89-A]	< 20	< 250
CN1C[C@@H](C2c3cccc(F)c3CCc3c(F)cccc32)n2ncc(=O)c(O)c2C1=O [Compound 83-B]	20 to 100	250 to 1000
Cc1cccc(C(c2ccccc2)C2CN(C)C(=O)c3c(O)c(=O)cnn32)c1 (stereo not shown) [Compound 27]	< 20	< 250
CCN1CC(C(c2ccccc2)c2cccc(OC)c2)n2ncc(=O)c(O)c2C1=O (stereo not shown) [Compound 34]	< 20	< 250
CC(N1CC(C(c2ccccc2)c2ccccc2)n2ncc(=O)c(O)c2C1=O)C(F)(F)F (stereo not shown) [Compound 18]	< 20	< 250
CC(C)N1C[C@@H](C(c2ccccc2)c2ccccc2)n2ncc(=O)c(OCOC(=O)C(C)(C)N)c2C1=O [Compound 113-B]	20 to 100	250 to 1000
CCN1CC(C(c2cccc(Cl)c2)c2cccc(Cl)c2)n2ncc(=O)c(O)c2C1=O (stereo not shown) [Compound 39]	< 20	< 250
CCN1C[C@H]([C@@H](c2ccccc2)c2cccc(Cl)c2)n2ncc(=O)c(O)c2C1=O [Compound 12-A]	< 20	< 250
CCCCN1C[C@H](C(c2cccc(F)c2)c2cccc(F)c2)n2ncc(=O)c(O)c2C1=O [Compound 87-A]	< 20	< 250
CC(C)N1CC(C2c3ccccc3CSc3ccccc32)n2ncc(=O)c(O)c2C1=O (stereo not shown) [Compound 121]	< 20	< 250
CC(C)N1C[C@H]([C@@H](c2ccccc2)c2ccccn2)n2ncc(=O)c(O)c2C1=O [Compound 132]	< 20	< 250
CN1C[C@@H](C2c3cc(F)ccc3CCc3ccc(F)cc32)n2ncc(=O)c(O)c2C1=O [Compound 45-B]	20 to 100	< 250
CN1C[C@@H](C2c3ccccc3CCc3cccnc32)n2ncc(=O)c(O)c2C1=O (stereo partly shown) [Compound 42-B]	20 to 100	250 to 1000
CCN1C[C@H](C(c2cccc(F)c2)c2cccc(F)c2)n2ncc(=O)c(OCOC(=O)Oc3ccc([N+](=O)[O-])cc3C)c2C1=O [Compound 88-A]	< 20	250 to 1000
CC#Cc1ccn([C@H](c2ccccc2)[C@@H]2CN(C)C(=O)c3c(O)c(=O)cnn32)n1 [Compound 115-A]	< 20	≥ 1000
C#Cc1ccn([C@H](c2ccccc2)[C@H]2CN(C)C(=O)c3c(O)c(=O)cnn32)n1 [Compound 109-C]	< 20	< 250
CN1C[C@H]([C@@H](c2ccccc2)c2cccc(Cl)c2)n2ncc(=O)c(O)c2C1=O [Compound 9-A]	< 20	< 250
